Reference: publication PMC12935919 (Frontiers in Pharmacology, 2026)
No end group written: not given here.

Columns and labels:
C2C12 cells = experiment: Myotube morphology during differentiation (microscopy, ImageJ); assay type: cell-based
Experimental: To induce C2C12 myotube differentiation, myoblasts were seeded in 6-well plates at 5 × 10^5 cells per well. Once reaching 90% confluency, they were cultured in DMEM supplemented with 2% horse serum (Thermo Fisher Scientific) and 1% penicillin-streptomycin. […] Differentiation was observed using an optical microscope (LEICA, 100×). Myotube morphology (length and diameter) was quantified in ImageJ (NIH) using the same images: myotube length was measured by tracing the long axis of each myotube (end-to-end), and myotube diameter was measured as the short-axis width at three positions along each myotube; the mean of the three width values was recorded as the diameter. For each experimental group, three randomly captured images (fields) were analyzed, and at least 15–20 myotubes per image were quantified under identical imaging settings.

[1] = system: Fc gamma-tagged myostatin/GDF-8; experiment: ELISA-based receptor binding assay; set-up: species or system human
Experimental: Plates were washed with PBST and blocked with 3% (w/v) BSA for 2 h at room temperature. They were then incubated for 2 h with Fc gamma-tagged myostatin/GDF-8 (Sino Biological, #50441-M01H) diluted in PBST. After another PBST wash, plates were treated with HRP-linked Anti-IgG Fc gamma (CST, #32935S, 1:1,000) for 2 h. Finally, color was developed with TMB (Sigma, #T0440), the reaction stopped with 1 M H2SO4, and absorbance was measured at 450 nm.

[2] = system: patients with muscle atrophy (ICD-10-CM code: M62.5); experiment: Clinical trial: safety, treatment emergent adverse events; assay type: in vivo, human; conditions: 12 weeks, 200 mg/day, N=40
From the text: All participants provided written informed consent prior to any study procedures. Key eligibility criteria included adults aged ≥18 years with low muscle mass by DEXA (men: <7.0 kg/m^2; women: <5.4 kg/m^2) and either low handgrip strength (men: <28 kg; women: <18 kg) or low physical performance (6-m walk speed <1.0 m/s). Major exclusion criteria included uncontrolled systemic disease, musculoskeletal or neurological disorders, recent anabolic steroid use, and concomitant medications known to affect protein metabolism; full inclusion and exclusion criteria are provided in Supplementary Table S1. Of 89 patients screened, seven were screen failures and two withdrew prior to randomization; 80 eligible participants were enrolled and proceeded to the baseline/randomization visit (mean age 38.83 ± 9.91 years; range 23–69).
The study was double-blind; participants, investigators, and study staff were unaware of treatment allocation throughout the trial.
Efficacy endpoints were evaluated as changes from baseline to Week 12; efficacy analyses were conducted in the per-protocol population, and safety analyses included all randomized participants who received at least one dose of study product (Supplementary Figure S2). Of 80 randomized participants, 75 completed the study.

myostatin binding compared to the control ([1]; Myoki-coated plates, ≥62.5 μM, absorbance 450 nm): more than 150%
Substance: EAEYEHL-OH [Myoki]
increase in myotube length compared to the control (C2C12 cells; Day 6, 100 μM, differentiation medium (2% horse serum), mean ± SD): 200% ± 33.88% | myotube length (C2C12 cells; Days 0-6, Myoki 1, 10 and 100 μM): increased concentration- and time-dependently | binding to myostatin ([1]; Myoki coated at 125, 250, 500, and 1,000 μM): directly and concentration-dependently binds to myostatin | TEAEs related to the study product [2]: No TEAEs were assessed as related to the study product | serious TEAEs [2]: no serious TEAEs were reported | severity and outcome of TEAEs [2]: all TEAEs were mild in severity and resolved
